Measured values taken from US20150056191A1, “IGF1 BIOMARKER FOR IGF1R INHIBITOR THERAPY” (MERCK SHARP & DOHME CORP., priority 2012, published 2015).
“Also recorded” adds a separate entry of the source. Like-named read-outs stand apart in the source and are kept apart here.

Experiments:
H2122 NSCLC cells = assay: H2122 cell growth with and without IGF1 (Cell Titer-Glo); type: cell-based; conditions: 10 ug/ml MK-0646, 96 hours, 2% fetal calf serum
Description: H2122 cells were obtained from the American Type Culture Collection (ATCC) and propagated according to the conditions provided by ATCC in media at 37° C. H2122 cells in low serum (2% fetal calf serum (Hyclone), at 2000 cells/well, were plated in a 96 well plate and incubated with 10 ug/ml MK-0646 or vehicle control for 96 hours in the presence or absence of IGF1 (10 ng; SIGMA). Cells were harvested at day 0 and day 4 and cell growth was measured by Cell Titer-Glo® ([…]) according to manufacturer instructions. The relative cell proliferation was calculated by normalizing to day 0 levels.

IGF1 receptor = IGF1 receptor (Homo sapiens, UniProt P08069); assay: Blocking of IGF1 binding to the IGF1 receptor
[1] = system: primary colorectal xenograft tumor models; assay: Primary colorectal xenograft tumor models, tumor growth inhibition; type: in vivo
Description: Primary colorectal xenograft tumor models were established from 10 independent colorectal tumors obtained directly from cancer patients. The relative levels of IGF1RNA expression were determined by gene expression profiling using genomic microarrays. […] These preclinical data provided in vivo evidence that increase sensitivity to the anti-IGF1R antibody, MK-0646, was strongly associated with increase IGF1RNA expression in the primary tumors.

[2] = cited from earlier work

Q: Which “proliferation of H2122 cells” value (H2122 NSCLC cells; in the absence of IGF1) does the source give for “MK-0646: anti-IGF1R monoclonal antibody dalotuzumab (MK0646; CAS no. 1005389-60-5)” here?
A: The value was “did not significantly alter”.

Q: What about the “IGF1-dependent proliferation / relative cell growth of H2122 cells” value (H2122 NSCLC cells; in the presence of IGF1 (10 ng)) of the same substance?
A: Its value is “statistically significant growth inhibition; also recorded: significantly blocked”.

Q: And the “blocking IGF1 ability to bind directly to the IGF1 receptor” value (IGF1 receptor)?
A: Its value is “capable of blocking”.

Q: What about the tumor growth inhibition ([1]; the 2 colorectal xenograft models with increased IGF1 RNA expression) of the same substance?
A: Its tumor growth inhibition is “at least 50%”.

Q: And the tumor growth inhibition ([1]; the 8 xenograft tumor models with low IGF1 expression)?
A: The tumor growth inhibition was “minimal or no tumor growth inhibition”.

Q: What about the MTD ([2]; with G alone) of the same substance?
A: The MTD was 10 mg/kg.

Q: What about the MTD ([2]; with Gemcitabine (G) and Erlotinib (E)) of the same substance?
A: Its MTD is 5 mg/kg.
